Results reported in paper PMC6920949, “Muscle to Brain Partitioning as Measure of Transporter-Mediated Efflux at the Rat Blood–Brain Barrier and Its Implementation into Compound Optimization in Drug Discovery” (Pharmaceutics, 2019).

Tests used:
[1] = set-up: method as in PMID 21934030; settings: rat, brain slice method; cited from earlier work
[2] = rat, in vivo
Procedure: (§1) Animal experiments were performed in male rats of different strains (Han Wistar, Sprague Dawley, Lister Hooded, Long-Evans, supplied by commercial breeders, typically Charles River, Sulzfeld, Germany or Janvier Labs, Saint-Berthevin Cedex, France). Only two studies were done in female animals. Typically three animals were used per experiment. […] Compounds were dosed orally, intravenously, subcutaneously, or intraperitoneally. For tissue sampling animals were anaesthetized with Ketamin/Inactin. After dissection of the cisterna magna, approximately 50 µL CSF was collected via a 0.4-mm cannula. Blood was collected from the retroorbital plexus into K3EDTA coated vials (Sarstedt, Nümbrecht, Germany) and plasma was collected by centrifugation for 5 min at approximately 5000 rpm. Animals were exsanguinated via the vena cava. The femoral muscle was prepared. A small piece (approximately 0.2–0.5 g) was excised, rinsed in cold physiological NaCl, and the remaining fat and superficial vessels were removed. For brain isolation, skin and muscle of head and neck were removed. The cranium was opened with a bone trimmer by one central and two lateral incisions. […]
(§2) Prior to bioanalysis plasma samples and dialysates were spiked with internal standard solution and diluted with acetonitrile for protein precipitation. […] Quantification was performed using external calibration.

[3] = Kp,br/mu: brain to skeletal muscle partitioning, tissue distribution study in rats; settings: rat, brain and skeletal (femoral) muscle
Procedure: as §1, §2

[4] = Kp,uu,brain by brain homogenate method; assay type: in vivo; settings: brain and plasma (unbound), rat, Table 4, read-out: Kp,uu,brain(hom) (This publication)
Source text: Under steady-state conditions, Kp,uu,brain defines the ratio between the unbound drug concentration in brain (Cu,brain), i.e., the interstitial fluid (ISF) and the unbound drug concentration in plasma(Cu,plasma) (Equation (1)). Kp,uu,brain = Cu,brain/Cu,plasma(1) Using microdialysis, the concentrations in brain ISF can be determined. […] Kp,uu,brain = Cu,brain/Cu,plasma = (Cbrain × fu,brain)/(Cplasma × fu,plasma) = Kp,brain × (fu,brain/fu,plasma)(2) where Cplasma and Cbrain are the plasma and brain concentration, respectively. Kp is the partition coefficient of total drug in brain and plasma:Kp,brain = Cbrain/Cplasma(3)
Animal experiments were performed in male rats of different strains (Han Wistar, Sprague Dawley, Lister Hooded, Long-Evans, supplied by commercial breeders, typically Charles River, Sulzfeld, Germany or Janvier Labs, Saint-Berthevin Cedex, France). Only two studies were done in female animals. Typically three animals were used per experiment. […] Compounds were dosed orally, intravenously, subcutaneously, or intraperitoneally. […]
Binding of research compounds to plasma protein and tissue homogenates was determined using the equilibrium dialysis method as described previously [9, 15]. […] Unbound plasma concentration (fu,plasma) was calculated as:fu,plasma = (Cplasma − Cbuffer)/Cplasma,(7) where Cplasma and Cbuffer are the plasma and buffer concentration, respectively.

[5] = set-up: method as in PMID 28880093; settings: dog cerebrum, cerebellum, brain stem; cited from earlier work
[6] = compounds without blood-brain barrier efflux; cited from earlier work

## NC(=O)N1c2ccccc2C=Cc2ccccc21 [Carbamazapine]
[1]
  Kp,uu,brain (Literature): 0.771
[2]
  Kp,br/mu (This publication): 1.44

## C=C[C@H]1C[N@@]2CC[C@H]1C[C@@H]2[C@@H](O)c1ccnc2ccc(OC)cc12 [Quinidine]
[3]
  Kp: 0.056
[4]
  Kp uu: 0.0276
[5]
  effect of up to 5-fold P-gp and BCRP expression differences between brain regions on Kp,brain: did not affect

## Cc1nnc2n1-c1sc(CCC(=O)N3CCOCC3)cc1C(c1ccccc1Cl)=NC2 [apafant]
[5]
  effect of up to 5-fold P-gp and BCRP expression differences between brain regions on Kp,brain: did not affect

## Cc1ncc2n1-c1ccc(Cl)cc1C(c1ccccc1F)=NC2 [midazolam]
[6]
  distribution into brain and skeletal muscle: very similar distributions into brain and skeletal muscle
